In paper PMC11193793 (Scientific Reports, 2024):
Read-outs that look alike come from different tables or passages of the source.

Key:
recombinant human COX-2 = molecular target: T1, recombinant human COX-2 (Homo sapiens, UniProt P35354); experiment: biochemical; conditions: for Selectivity index (SI): COX-2 selectivity from COX-1 and COX-2 IC50
T1 sequence (P35354 18-604): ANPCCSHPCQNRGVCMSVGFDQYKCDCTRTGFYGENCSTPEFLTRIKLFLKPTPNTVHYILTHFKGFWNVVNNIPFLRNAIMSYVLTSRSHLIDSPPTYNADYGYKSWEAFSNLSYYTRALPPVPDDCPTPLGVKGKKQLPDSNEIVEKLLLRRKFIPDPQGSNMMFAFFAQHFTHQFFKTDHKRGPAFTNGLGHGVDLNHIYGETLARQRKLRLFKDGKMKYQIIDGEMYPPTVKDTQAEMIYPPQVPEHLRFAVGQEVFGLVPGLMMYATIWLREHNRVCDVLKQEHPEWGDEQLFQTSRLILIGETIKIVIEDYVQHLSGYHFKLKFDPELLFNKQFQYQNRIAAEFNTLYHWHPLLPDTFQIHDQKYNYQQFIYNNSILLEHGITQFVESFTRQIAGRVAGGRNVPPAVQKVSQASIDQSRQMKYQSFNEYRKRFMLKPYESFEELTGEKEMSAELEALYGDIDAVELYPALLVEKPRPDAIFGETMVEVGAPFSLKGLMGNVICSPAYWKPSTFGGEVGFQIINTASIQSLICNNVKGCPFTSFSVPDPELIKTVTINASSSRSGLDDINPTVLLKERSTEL
Procedure: (§1) The full method is provided in the Supplementary materials.
(§2) Serial dilutions (100, 10, 1, 0.1, and 0.01 µg/mL) of the F. solani extract and the isolated metabolites were prepared and solvated in DMSO, then estimated for their abilities to inhibit the synthesis of prostaglandin using the kits for screening test for COX inhibitors (BioVision, Inc., USA, Mountain View, Catalog # K548-100 and Catalog # K547-100, for COX- […]
(§3) The investigational methodology was carried out following the provider’s recommendations. Arachidonic acid is being converted into prostaglandin (PGH2) by the cyclooxygenase enzyme (COX). During the reduction, the PGF2α formed in PGH2 via stannous chloride was evaluated via ELISA (enzyme-linked immunoassay). This bioassay is based on the competition among an antibody; PGspecific and a cholinesterase conjugate; PG-acetyl. The developed (antibody-PG) was combined with an acetylcholinesterase substrate included in Ellman's reagent. Each sample (20 µL) was used, (10 µL) heme, and (10 µL) enzyme, were combined to the reaction buffer solution (160 µL) formed of (2 mM phenol and 5 mM ethylenediamine tetra acetate (EDTA) in 0.1 M Tris-HCl, pH 8), followed by incubation of the mixture in a water bath at 37 °C for 10 min. Subsequently, starting the COX reaction was done by adding 10 µL of arachidonic acid, with a final concentration of […], to the reaction mixture.
(§4) Later, the COX reactions were ended after 2 min by adding saturated stannous chloride (30 µL), then inoculate for 5 min at room temperature. Afterwards, the PGF2α level was measured using ELISA. Subsequent move to a 96-well plate, inoculate the samples at room temperature for 18 h, then wash the plate to eliminate any residual reagents, followed by the addition of Ellman’s reagent (200 µL) which contains an acetylcholinesterase substrate, and incubation at room temperature for 60 to 90 min. A spectrophotometer with a microplate reader at 410 nm was used to measure the produced color at 410 […]
(§5) The data mean values from three measurements were used to calculate IC50 values. […]

ovine COX-1 = molecular target: T2, ovine COX-1 (Ovis aries, UniProt P05979); experiment: biochemical
T2 sequence (P05979 25-600): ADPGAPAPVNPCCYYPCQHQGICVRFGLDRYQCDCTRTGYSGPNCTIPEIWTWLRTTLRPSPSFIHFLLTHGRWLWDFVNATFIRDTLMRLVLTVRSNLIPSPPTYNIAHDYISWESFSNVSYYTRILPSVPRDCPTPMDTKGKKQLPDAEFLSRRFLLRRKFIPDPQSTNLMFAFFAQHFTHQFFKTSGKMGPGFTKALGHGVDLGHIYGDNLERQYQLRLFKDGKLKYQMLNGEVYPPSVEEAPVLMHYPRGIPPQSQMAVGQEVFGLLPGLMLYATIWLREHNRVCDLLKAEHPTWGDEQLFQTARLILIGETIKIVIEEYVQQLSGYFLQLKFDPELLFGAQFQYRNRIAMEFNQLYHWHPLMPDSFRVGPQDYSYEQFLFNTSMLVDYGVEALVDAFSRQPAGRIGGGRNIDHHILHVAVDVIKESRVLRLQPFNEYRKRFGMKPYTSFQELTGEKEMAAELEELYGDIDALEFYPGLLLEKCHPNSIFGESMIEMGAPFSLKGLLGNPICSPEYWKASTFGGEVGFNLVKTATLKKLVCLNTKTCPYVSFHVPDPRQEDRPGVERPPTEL
Procedure: as §1, §2, §3, §4, §5

tyrosinase enzyme = experiment: Tyrosinase inhibitory assay (L-DOPA substrate, BioVision kit); type: biochemical; conditions: mean ± SEM, triplicate
Text: The anti-tyrosinase capacities of the F. solani extract together with the six isolated metabolites were investigated via evaluating their inhibitory activities against tyrosinase enzyme. The full method is provided in the Supplementary materials. […]
Tyrosinase inhibitory assay
The anti-tyrosinase capacities of the F. solani extract together with the six isolated metabolites were investigated via evaluating their inhibitory activities against tyrosinase enzyme using the kits for screening test of tyrosinase enzyme inhibition (BioVision, Inc., USA, Mountain View, Catalog # K575-100).
First, all samples were dissolved using DMSO (reference drug, EtOAc extract and the isolated compounds) preparing different concentrations. The assay of tyrosinase inhibition was done as previously reported 3. The mixture of assay composed of test solution (1900 μL) in (0.1 M) buffer phosphate pH 6.8 and freshly prepared enzyme solution (100 μL) which is composed of 15 U/mL in (0.1 M) buffer phosphate pH 6.8. The 30 min. of room temperature after pre-incubation, the reaction was started by adding substrate solution (1000 μL) which composed of L-DOPA (1.5 Mm) in buffer phosphate (0.1 M) pH 6.8. After 7 minutes of room temperature incubation, the mixture of the assay was analyzed for absorbance at […]
510 nm. […] The activity of tyrosinase inhibition
(The activity of the enzyme together with the tested samples). The mean values of the data from three measurements were used to calculate IC50 values.

[1] = mean ± SEM, triplicate, read-out: IC50 COX-2
[2] = mean ± SEM, triplicate, read-out: IC50 COX-1

Row | SMILES | IC50 (recombinant human COX-2; [1]) [µM] | IC50 (ovine COX-1; [2]) [µM] | IC50 (tyrosinase enzyme) [µM] | Selectivity index (SI) (recombinant human COX-2) | IC50 (tyrosinase enzyme; listed as 4-hydroxybenzaldehyde) [µM] | IC50 (tyrosinase enzyme; listed as 4-hydroxybenzaldehyde (1)) [µM] | IC50 (ovine COX-1) [µM] | IC50 (tyrosinase enzyme; listed as malic acid) [µM] | IC50 (recombinant human COX-2) [µM]
1 | O=C(O)c1ccc(O)cc1 [4-Hydroxybenzoic acid (2), 4-hydroxybenzoic acid] | 28.4 ± 0.76 | 44.5 ± 0.92 | 25.4 ± 0.53 | – | – | – | – | – | –
2 | O=Cc1ccc(O)cc1 [4-Hydroxybenzaldehyde (1), 4-hydroxybenzaldehyde] | 8.87 ± 0.26 | 25.7 ± 0.55 | – | 2.9 | > 50 | 70.6 ± 1.49 | – | – | –
3 | CCCCc1ccc(C(=O)O)nc1 [Fusaric acid (6), fusaric acid] | 4.81 ± 0.14 | – | 13.4 ± 0.27 | 0.8 | – | – | 3.86 ± 0.05 | – | –
4 | O=C(O)CC(O)C(=O)O (stereo not drawn) [Malic acid (5), malic acid] | 10.4 ± 0.3 | – | 87.5 ± 1.84 | – | – | – | 51 ± 0.86 | > 50 | –
5 | O=C(O)CCCCCCCC(=O)O [Azelaic acid (4), azelaic acid] | 2.21 ± 0.06 | 11.6 ± 0.29 | 8.75 ± 0.18 | 5.24 | – | – | – | – | –
6 | OCCc1ccc(O)cc1 [Tyrosol (3), tyrosol] | – | – | 11.3 ± 0.24 | 4.49 | – | – | 23.9 ± 0.38 | – | 5.31 ± 0.15
